Patent publication US6949682B2, “Cinnamaldehyde derivatives inhibiting growth of tumor cell and regulating cell cycle, preparations and pharmaceutical compositions thereof” (Korea Research Institute of Bioscience and Biotechnology, priority 2003, dated 2005)

Columns and labels:
SW620 colon cancer cell [1] = assay: Cell cycle distribution (Experimental Example 2), SW620; assay type: cell-based, human; settings: SW620, 1 μM, 48 hours
Procedure: (§1) SW620 or HCT116 as colon cancer cell was inoculated in 100 mm plate to the amount of 2×10^6 cells. Then, cinnamaldehyde derivative of the present invention (compound 16 or compound 35) was added to the plate in the concentration of 1 μM. Thereafter, the colon cancer cell was incubated for 48 hours. Trypsin was added to the plate, to separate the colon cancer cell from the plate. And 5 ml of PBS (phosphate buffer solution) was added to the plate, to prepare the cell mixture. The cell mixture was centrifuged at 1,500 rpm for 5 min for two times, to remove trypsin from the mixture. The residue was washed with PBS for two times, thus the resulting supernatant was discarded. 1 ml of PBS and 3˜5 ml of cool ethanol(70%) was added to the resulting residue. The cell was fixed by being positioned at −20° C. for 12 hours. The fixed cell was centrifuged at 1,500 rpm for 5 min and washed with the cool PBS for two times to remove residual ethanol. RNase(10 μg/ml) was added to the fixed cell, to remove RNA. And DNA of the fixed cell was dyed with PI(propidium iodide, 50 μg/ml). After the fixed cell was positioned at 37° C. for 30 min, cell cycles of 20,000 cells were measured by using Becton-Dickinson FACS caliber (San Jose, Calif., USA).
(§2) For control group, the same procedure was accomplished except that DMSO was used in place of the cinnamaldehyde derivative.

HCT116 colon cancer cell [2] = assay: Cell cycle analysis (Experimental Example 1), HCT116; assay type: cell-based, human; settings: HCT116, 1 μM, 48 hours, percentage of cells in G2/M
Procedure: (§3) Colon cancer cell of human SW620(ATCC) or HCT116 (ATCC) was transferred to T25 flask(culture 7.5 ml) by RPMI1640 (Gibco/BR) medium or DMEM medium (Gibco/BR) containing 10% FBS (fetal bovine serum), respectively. Thereafter the cell was incubated for 12 hours at 37° C. in incubator. After the cell was incubated for 12 hours, 7.5 μl of DMSO was added to a culture used as control group, for the final concentration to be 0.1%. In order to use in experiment, samples of various concentrations were prepared by dissolving the cinnamaldehyde derivatives of the present invention in DMSO. 7.5 μl of the prepared samples was added to a culture used as experimental group. Cell of control or experimental group was incubated for 48 hours.
(§4) For cell cycle analysis, incubated cell was removed from medium. Thereafter the incubated cell was separated from the flask by trypsin. Thus the cell was centrifuged at 300 g for 5 min. The cell was washed with phosphate buffer solution (PBS) to remove the residue medium from the cell. 3 ml of ethanol (70%) was added to the cell. The cell was fixed by being positioned at −20° C. for 12 hours. The fixed cell was centrifuged at 300 g for 3 min and washed with the cold PBS for two times to remove residual ethanol. The cell solution prepared by adding 500 μl of PBS to the cell was well mixed to produce the homogeneous state. 100 μg/ml RNase A 50 μl was added to the cell solution, thereafter the resulting cell solution was positioned at 37° C. for 30 min. The chromosomal DNA was stained by further adding 1 mg/ml propidium iodide (soluble in PBS) thereto.
(§5) Distribution of cell cycle of 20,000 stained cells were measured by using Becton-Dickinson FACS caliber (San Jose, Calif., USA).

HCT116 colon cancer cell [3] = assay: Growth inhibition of HCT116 colon cancer cell (GI50); assay type: cell-based, human; settings: Homo sapiens, HCT-116; concentration at which growth of HCT116 colon cancer cell was inhibited to the 50%
Procedure: as §3
(§6) HCT116 GI50 (μM) and SW620 GI50 (μM) mean to be the concentrations at which growth of HCT116 and SW620 colon cancer cell was inhibited to the 50%, respectively.

SW620 colon cancer cell [4] = assay: Cell cycle analysis (Experimental Example 1), SW620; assay type: cell-based, human; settings: SW620, 1 μM, 48 hours, percentage of cells in G2/M
Procedure: as §3, §4, §5

HCT116 colon cancer cell [5] = assay: Cell cycle distribution (Experimental Example 2), HCT116; assay type: cell-based, human; settings: for Amount of cell (%) G0-G1 / Amount of cell (%) G2-M / Amount of cell (%) S: HCT116, 1 μM, 48 hours; for Holding of cancer cell in stage G2/M (in words): HCT116 and SW620, 1 μM, summary of table 3
Procedure: as §1, §2

SW620 colon cancer cell [6] = assay: Growth inhibition of SW620 colon cancer cell (GI50); assay type: cell-based, human; settings: Homo sapiens, SW-620; concentration at which growth of SW620 colon cancer cell was inhibited to the 50%
Procedure: as §3, §6

Structure (SMILES)	melting point [°C]	GI50 (HCT116 colon cancer cell [3]) [µM]	GI50 (SW620 colon cancer cell [6]) [µM]	Amount of cell (%) G0-G1 (SW620 colon cancer cell [1]) [%]	Amount of cell (%) G2-M (SW620 colon cancer cell [1]) [%]	Amount of cell (%) S (SW620 colon cancer cell [1]) [%]	G2/M at 1 μM(%) HCT116 (HCT116 colon cancer cell [2]) [%]	G2/M at 1 μM(%) SW620 (SW620 colon cancer cell [4]) [%]	Amount of cell (%) G0-G1 (HCT116 colon cancer cell [5]) [%]	Amount of cell (%) G2-M (HCT116 colon cancer cell [5]) [%]	Amount of cell (%) S (HCT116 colon cancer cell [5]) [%]	Holding of cancer cell in stage G2/M (in words) (HCT116 colon cancer cell [5])
O=CC(=Cc1ccccc1F)C(C=O)=Cc1ccccc1F [Compound 2, 2,3-bis-(2-fluorobenzylidene)succinaldehyde]	141 to 142	4.02	10.7				48	58				
COc1ccccc1C=C(C=O)C(C=O)=Cc1ccccc1OC [Compound 5, 2,3-bis-(2-methoxybenzylidene)succinaldehyde]	163 to 164	3.72	1.55				55	50				
COc1cc(C=C(C=O)C(C=O)=Cc2ccc(O)c(OC)c2)ccc1O [Compound 7, 2,3-bis-(4-hydroxy-3-methoxy-benzylidene)succinaldehyde]	177 to 178	7.87	3.53				30	38				
O=CC(=Cc1ccccc1Br)C(C=O)=Cc1ccccc1Br [Compound 4, 2,3-bis-(2-bromobenzylidene)succinaldehyde]	194 to 195	1.05	2.14				38	36				
O=CC(=Cc1ccccc1Cl)C(C=O)=Cc1ccccc1Cl [Compound 3, 2,3-bis-(2-chlorobenzylidene)succinaldehyde]	177 to 178	0.91	0.91				40	47				
COc1ccc(C=C(C=O)C(C=O)=Cc2ccc(OC)c(OC)c2)cc1OC [Compound 8, 2,3-bis-(3,4-dimethoxybenzylidene)succinaldehyde]	149 to 150	5.49	10.5				71	75				

Further lines, with some results ahead:

melting point [°C]	GI50 (HCT116 colon cancer cell [3]) [µM]	GI50 (SW620 colon cancer cell [6]) [µM]	Structure (SMILES)	Amount of cell (%) G0-G1 (SW620 colon cancer cell [1]) [%]	Amount of cell (%) G2-M (SW620 colon cancer cell [1]) [%]	Amount of cell (%) S (SW620 colon cancer cell [1]) [%]	G2/M at 1 μM(%) HCT116 (HCT116 colon cancer cell [2]) [%]	G2/M at 1 μM(%) SW620 (SW620 colon cancer cell [4]) [%]	Amount of cell (%) G0-G1 (HCT116 colon cancer cell [5]) [%]	Amount of cell (%) G2-M (HCT116 colon cancer cell [5]) [%]	Amount of cell (%) S (HCT116 colon cancer cell [5]) [%]	Holding of cancer cell in stage G2/M (in words) (HCT116 colon cancer cell [5])
120 to 121	1.41	0.63	O=CC(=Cc1ccccc1OCc1ccccc1)C(C=O)=Cc1ccccc1OCc1ccccc1 [Compound 16, 2,3-bis-(2-benzyloxy-benzylidene)succinaldehyde]	6.64	80.21	13.15	43	80	22.36	43.29	34.35	held a cancer cell in the stage G2/M
177 to 178	1.03	5.17	Cc1ccc(C=C(C=O)C(C=O)=Cc2ccc(C)cc2)cc1 [Compound 11, 2,3-bis-(4-methyl-benzylidene)succinaldehyde]				40	44				
218 to 220	5.23	0.72	CN1CCN(c2ccccc2/C=C(C=O)/C(C=O)=C/c2ccccc2N2CCN(C)CC2)CC1 [Compound 35, 2,3-bis-(2-(N-methylpiperazine)benzylidene)succinaldehyde]	8.74	78.53	12.73	52	79	15.52	52.11	32.37	held a cancer cell in the stage G2/M
119 to 120	3.58	7.38	O=CC(=Cc1ccc(OCc2ccccc2)cc1)C(C=O)=Cc1ccc(OCc2ccccc2)cc1 [Compound 31, 2,3-bis-(4-benzyloxy-benzylidene)succinaldehyde]				64	62				
109 to 110	5.34	5.34	CC(C)Oc1ccccc1C=C(C=O)C(C=O)=Cc1ccccc1OC(C)C [Compound 15, 2,3-bis-(2-isopropyloxy-benzylidene)succinaldehyde]				70	69				
244 to 246	1.36	1.02	O=CC(=Cc1ccc(O)cc1)C(C=O)=Cc1ccc(O)cc1 [Compound 10, 2,3-bis-(4-hydroxy-benzylidene)succinaldehyde]				61	65				
193 to 194	7.5	6.3	O=CC(=Cc1cccc(OCc2ccc(Cl)cc2)c1)C(C=O)=Cc1cccc(OCc2ccc(Cl)cc2)c1 [Compound 36, 2,3-bis-(3-(4-chlorobenzyloxy)-benzylidene)succinaldehyde]				41	42				
117 to 118	5.28	2.64	C=CCOc1ccccc1C=C(C=O)C(C=O)=Cc1ccccc1OCC=C [Compound 14, 2,3-bis-(2-allyloxy-benzylidene)succinaldehyde]				72	76				
